Among the data in ChEMBL document CHEMBL1156836, “4-Aryl-4-oxo-N-phenyl-2-aminylbutyramides as acetyl- and butyrylcholinesterase inhibitors. Preparation, anticholinesterase activity, docking study, and 3D structure-activity relationship based on molecular interaction fields” (Bioorg Med Chem, 2010) are IC50, inhibition and Ki values, retold here.

The source made the active and inactive calls. The calls are words filed in the database; no cut-off is given here. A value given as a limit tells only on which side of the number the result lay.

The target of assay [1] is T1, Cholinesterase (Equus caballus, UniProt P81908).
Description: (§1) Inhibition of horse serum BChE by Ellman's method
Assay [2] deals with T2, Acetylcholinesterase (Electrophorus electricus, UniProt O42275).
Description: (§2) Inhibition of electric eel AChE by Ellman's method
In assay [3] the target is T1, Cholinesterase. This is another data set of the same source.
Description: as §1
For assay [4], the target named is T2, Acetylcholinesterase. The source holds these as a separate data set.
Description: as §2
For assay [5], the target named is Cholinesterase (Equus caballus) (UniProt P81908). Kind of assay: Inhibition of horse serum BChE at 40 uM by Ellman's method.
Assay [6] has the same target. Description: Inhibition of horse serum BChE at 100 uM by Ellman's method.
The target is the same in assay [7]. Description: Inhibition of horse serum BChE at 30 uM by Ellman's method.
Assay [8] has the same target. Description: Inhibition of horse serum BChE at 15 uM by Ellman's method.
The target in assay [9] is Acetylcholinesterase (Electrophorus electricus) (UniProt O42275). Kind of assay: Inhibition of electric eel AChE at 100 uM by Ellman's method. On the technique in general: DTNB colorimetry detects thiols as they appear.
Assay [10] deals with Cholinesterase (Equus caballus) (UniProt P81908). Description: Inhibition of horse serum BChE at 70 uM by Ellman's method.
The target is the same in assay [11]. Description: Mixed type inhibition of horse serum BChE by Ellman's method.
Assay [12] addresses Acetylcholinesterase (Electrophorus electricus) (UniProt O42275). Description: Mixed type inhibition of electric eel AChE by Ellman's method.
The target of assay [13] is T1, Cholinesterase. Description: Inhibition of horse serum BChE by Lineweaver-Burke plot.

T1 sequence (P81908 whole entry): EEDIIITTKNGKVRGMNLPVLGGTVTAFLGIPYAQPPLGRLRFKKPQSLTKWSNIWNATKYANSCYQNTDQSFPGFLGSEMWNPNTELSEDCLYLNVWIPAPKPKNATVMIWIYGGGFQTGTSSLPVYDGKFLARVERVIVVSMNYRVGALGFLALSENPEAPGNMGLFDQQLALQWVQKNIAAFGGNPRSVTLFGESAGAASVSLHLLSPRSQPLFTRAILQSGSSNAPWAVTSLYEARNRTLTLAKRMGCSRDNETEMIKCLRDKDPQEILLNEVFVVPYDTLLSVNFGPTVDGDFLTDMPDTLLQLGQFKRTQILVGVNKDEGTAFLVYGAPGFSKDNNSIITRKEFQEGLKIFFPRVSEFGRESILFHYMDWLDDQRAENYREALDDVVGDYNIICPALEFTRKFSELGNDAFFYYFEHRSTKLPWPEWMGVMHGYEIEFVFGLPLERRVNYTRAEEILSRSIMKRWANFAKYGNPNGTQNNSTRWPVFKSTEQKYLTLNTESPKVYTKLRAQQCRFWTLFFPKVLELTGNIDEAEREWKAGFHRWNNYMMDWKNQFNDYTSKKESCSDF
Sequence of Cholinesterase (Equus caballus) (P81908 whole entry): as above
Sequence of Acetylcholinesterase (Electrophorus electricus) (O42275 24-633 limits assumed): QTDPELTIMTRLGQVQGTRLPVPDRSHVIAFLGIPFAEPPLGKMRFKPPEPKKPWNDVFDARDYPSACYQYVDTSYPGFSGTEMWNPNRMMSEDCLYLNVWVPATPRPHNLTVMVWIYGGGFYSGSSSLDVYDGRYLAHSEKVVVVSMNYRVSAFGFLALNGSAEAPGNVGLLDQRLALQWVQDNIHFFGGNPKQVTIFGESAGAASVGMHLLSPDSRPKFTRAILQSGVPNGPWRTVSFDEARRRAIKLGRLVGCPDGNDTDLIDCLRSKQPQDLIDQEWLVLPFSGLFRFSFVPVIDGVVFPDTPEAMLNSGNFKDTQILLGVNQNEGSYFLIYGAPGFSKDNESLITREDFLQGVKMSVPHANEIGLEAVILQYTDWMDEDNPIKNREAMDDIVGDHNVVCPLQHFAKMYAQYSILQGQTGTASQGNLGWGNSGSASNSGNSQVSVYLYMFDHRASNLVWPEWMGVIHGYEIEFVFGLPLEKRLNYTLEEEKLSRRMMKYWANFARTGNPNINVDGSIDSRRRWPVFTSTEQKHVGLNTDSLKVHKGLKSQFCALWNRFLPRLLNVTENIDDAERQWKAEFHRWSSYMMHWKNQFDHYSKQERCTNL
T2 sequence (O42275 whole entry): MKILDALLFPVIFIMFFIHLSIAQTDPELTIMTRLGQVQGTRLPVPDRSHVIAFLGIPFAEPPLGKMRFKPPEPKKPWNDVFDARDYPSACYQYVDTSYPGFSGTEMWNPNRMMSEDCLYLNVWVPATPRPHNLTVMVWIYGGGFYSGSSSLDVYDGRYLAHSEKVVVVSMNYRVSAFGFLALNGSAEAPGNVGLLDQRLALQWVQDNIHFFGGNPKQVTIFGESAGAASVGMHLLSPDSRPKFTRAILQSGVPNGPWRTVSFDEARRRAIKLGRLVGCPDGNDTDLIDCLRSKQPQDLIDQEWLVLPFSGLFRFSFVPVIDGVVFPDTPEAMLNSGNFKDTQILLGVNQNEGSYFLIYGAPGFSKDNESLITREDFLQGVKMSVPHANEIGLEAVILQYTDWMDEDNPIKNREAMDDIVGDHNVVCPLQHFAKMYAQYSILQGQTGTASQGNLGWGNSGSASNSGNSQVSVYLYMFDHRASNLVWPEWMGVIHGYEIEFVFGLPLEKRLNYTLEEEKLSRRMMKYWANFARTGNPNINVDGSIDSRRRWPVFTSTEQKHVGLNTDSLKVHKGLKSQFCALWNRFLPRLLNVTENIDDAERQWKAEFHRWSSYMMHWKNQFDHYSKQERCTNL

The term IC50 denotes the concentration that inhibits the measured activity by half. For the compound `COc1ccc(C(=O)CC(NCCCCCCCCNC(CC(=O)c2ccc(OC)cc2)C(=O)Nc2ccccc2)C(=O)Nc2ccccc2)cc1` (mixture of isomers), the half-inhibitory concentration (IC50) entry at Cholinesterase [1] and against Acetylcholinesterase [2] was “ND(Insoluble)” each time.

On to `COc1ccc(C(=O)CC(C(=O)Nc2ccccc2)n2ccnc2)cc1` (racemic), for which the IC50 on Cholinesterase [3] was 30.4 µM; at Acetylcholinesterase [4], 7.85 µM.

Regarding `O=C(CC(C(=O)Nc1ccccc1)N1CCOCC1)c1ccc(Cl)cc1` (racemic), the IC50 result against Cholinesterase [1] and on Acetylcholinesterase [2] was “ND(Insoluble)” throughout.

In the case of `CC(C)c1ccc(C(=O)CC(NCCCCCCCCNC(CC(=O)c2ccc(C(C)C)cc2)C(=O)Nc2ccccc2)C(=O)Nc2ccccc2)cc1` (mixture of isomers), the IC50 result against Cholinesterase [1] and at Acetylcholinesterase [2] was “ND(Insoluble)” each time.

In the case of `O=C(CC(NCCCCCCCCNC(CC(=O)c1ccc(Cl)cc1)C(=O)Nc1ccccc1)C(=O)Nc1ccccc1)c1ccc(Cl)cc1` (mixture of isomers), the IC50 entry on Cholinesterase [1] and on Acetylcholinesterase [2] was “ND(Insoluble)” in each case.

Take `Cc1ccc(C)c(C(=O)CC(C(=O)Nc2ccccc2)N2CCOCC2)c1` (racemic): the half-maximal inhibitory concentration (IC50) is 34.1 µM against Cholinesterase [3] and over 100 µM against Acetylcholinesterase [4].

As to `Cc1ccc(C)c(C(=O)CC(C(=O)Nc2ccccc2)N2CCCCC2)c1` (racemic), the results for the half-maximal inhibitory concentration (IC50) at Cholinesterase [3] and against Acetylcholinesterase [4] were 17.2 µM and over 10 µM, respectively.

As for `CC(C)c1ccc(C(=O)CC(NCCCCCCCCNC(CC(=O)c2ccc(C(C)C)cc2C(C)C)C(=O)Nc2ccccc2)C(=O)Nc2ccccc2)c(C(C)C)c1` (mixture of isomers), the IC50 result at Cholinesterase [1] and against Acetylcholinesterase [2] was “ND(Insoluble)” each time.

For orientation: inhibition means the relative decrease from the control value, in per cent. Take `O=C(CC(C(=O)Nc1ccccc1)n1ccnc1)c1ccc2c(c1)CCCC2` (racemic): the inhibition in [5] worked out at 17%.

As to `O=C(CC(C(=O)Nc1ccccc1)N1CCCCC1)c1ccccc1` (racemic), the inhibition in [6] was determined as 34.8%. Also, the half-inhibitory concentration (IC50) on Acetylcholinesterase [4] was over 100 µM.

As to `CC(C)c1ccc(C(=O)CC(C(=O)Nc2ccccc2)n2ccnc2)cc1` (racemic), the inhibition in assay [7] was found to be 10%.

For `O=C(CC(C(=O)Nc1ccccc1)n1ccnc1)c1ccc(Cl)cc1` (racemic), the IC50 result against Cholinesterase [1] and against Acetylcholinesterase [2] was “ND(Insoluble)” each time.

On to `O=C(CC(C(=O)Nc1ccccc1)N1CCOCC1)c1ccc2c(c1)CCCC2` (racemic), for which the IC50 against Acetylcholinesterase [4] was over 30 µM. The inhibition in assay [5] was 13%.

For the compound `Cc1ccc(C)c(C(=O)CC(NCCCCCCCCNC(CC(=O)c2cc(C)ccc2C)C(=O)Nc2ccccc2)C(=O)Nc2ccccc2)c1` (mixture of isomers), the IC50 entry against Cholinesterase [1] and against Acetylcholinesterase [2] was “ND(Insoluble)” throughout.

On to `COc1ccc(C(=O)CC(C(=O)Nc2ccccc2)N2CCCCC2)cc1` (racemic), for which the figures for the IC50 against Cholinesterase [3] and at Acetylcholinesterase [4] were over 40 µM and over 10 µM, respectively.

With `O=C(CC(C(=O)Nc1ccccc1)N1CCCCC1)c1ccc2c(c1)CCCC2` (racemic), the inhibition in assay [8] amounted to 21.5%.

On Cholinesterase [3], `COc1ccc(C(=O)CC(C(=O)Nc2ccccc2)N2CCOCC2)cc1` (racemic) came in with an IC50 of over 100 µM. Moreover, the inhibition in assay [9] was 38.7%.

For `O=C(CC(C(=O)Nc1ccccc1)N1CCOCC1)c1ccccc1` (racemic), the inhibition in assay [6] was determined as 21.6%. On Acetylcholinesterase [4], this compound registered an IC50 of over 100 µM.

On to `CC(C)c1ccc(C(=O)CC(C(=O)Nc2ccccc2)N2CCCCC2)cc1` (racemic), for which the IC50 on Cholinesterase [3] was 7.06 µM.

For `Cc1ccc(C)c(C(=O)CC(C(=O)Nc2ccccc2)n2ccnc2)c1` (racemic), the inhibition in [10] came to 42%. This compound also gave an IC50 against Acetylcholinesterase [4] of 27.9 µM.

For the compound `CC(C)c1ccc(C(=O)CC(C(=O)Nc2ccccc2)n2ccnc2)c(C(C)C)c1` (racemic), on Cholinesterase [3], the concentration for half-maximal inhibition (IC50) is over 20 µM. The inhibition result in assay [11] and in [12] was “Active” in each case.

As for `CC(C)c1ccc(C(=O)CC(C(=O)Nc2ccccc2)N2CCOCC2)cc1` (racemic), the IC50 on Acetylcholinesterase [4] was over 100 µM. The compound also gave an inhibition in [5] of 27.2%.

Take `O=C(CC(NCCCCCCCCNC(CC(=O)c1ccc2c(c1)CCCC2)C(=O)Nc1ccccc1)C(=O)Nc1ccccc1)c1ccc2c(c1)CCCC2` (mixture of isomers): the half-maximal inhibitory concentration (IC50) result on Cholinesterase [1] and against Acetylcholinesterase [2] was “ND(Insoluble)” in each case.

`CC(C)c1ccc(C(=O)CC(C(=O)Nc2ccccc2)N2CCCCC2)c(C(C)C)c1` (racemic) displayed an inhibition in [8] of 39.9%.

One may read the Ki as the dissociation constant of the complex between target and ligand, obtained from inhibition or displacement. For the compound `CC(C)c1ccc(C(=O)CC(C(=O)Nc2ccccc2)N2CCOCC2)c(C(C)C)c1` (racemic), the IC50 against Cholinesterase [3] is 2.48 µM. Also, the inhibition entry in assay [11] and in [12] was “Active” each time. The same compound displayed a Ki on Cholinesterase [13] of 3.18 µM.

On to `O=C(CC(C(=O)Nc1ccccc1)N1CCCCC1)c1ccc(Cl)cc1` (racemic), for which the IC50 result against Cholinesterase [1] and at Acetylcholinesterase [2] was “ND(Insoluble)” each time.
